This series can be described thus: recombinant barcode read abundance after kanamycin selection (control-corrected) (log10(CPM+1)); higher = more efficient recombination; sequences stand for … in AGTGCAGAGAAAATCGGCCAGTTTTCTCTGCCTGCAGTCCGCATGCCGT…AGATTTATGCAGCGGACTGCCTTTCTCCCAAAGTGATAAACCGGACAGTATCATGGACCGGTTTTCCCGGTAATCCGTATTTGCAAGGTTGGTTTCACT; site = the 11-nt target. The essentials:
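Targets and IS621 bridge RNA target-binding loops were paired in oligos, each with a promoter, a barcode and the J23119-driven first 104 bridge RNA bases. A vector carrying the remaining 73 bp and a T7-inducible recombinase received these by Gibson cloning, and the pool was co-electroporated into E. coli with a donor plasmid. Duplicate plates contained chloramphenicol/ampicillin LB agar (control) or chloramphenicol/ampicillin/kanamycin with 0.1 mM IPTG. Recombination efficiency comes from averaged, control-corrected counts per million of recombinant-junction barcodes, reported as log10(CPM+1).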
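Note: IS621 recombinase and bridge RNA in Escherichia coli cells.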

“CTTCGTCCTTGGGTTCTAACCTGTTGCTT (site CTTCGTCCTAA)”: the “recombinant barcode read abundance (log10)” value worked out at 0.206.
On to “CTTCGTCCTTGGGTTCTAACCTGTTGCTT (site CTTCGTCCTAC)”, for which the “recombinant barcode read abundance (log10)” value amounted to 0.68.
On to “CTTCGTCCTTGGGTTCTAACCTGTTGCTT (site CTTCGTCCTAG)”, for which the “recombinant barcode read abundance (log10)” value was 0.0453.
For “CTTCGTCCTTGGGTTCTAACCTGTTGCTT (site CTTCGTCCTAT)” the value was 0.541; for “CTTGACACTTGGGTTCTAACCTGTTGCCT (site CTAGACACTAG)”, 1.2; for “CTTGACACTTGGGTTCTAACCTGTTGCCT (site CTCGACACTAG)”, 0.401.
For “CTTGACACTTGGGTTCTAACCTGTTGCCT (site CTGGACACTAG)” the value was 0.236; for “CTTGACACTTGGGTTCTAACCTGTTGCCT (site CTTGACACTAG)”, 2.07.
The result for “CTTGGAGCTTGGGTTCTAACCTGTTGCCT (site CTTGGAACTAG)” reads 0.365; that for “CTTGGAGCTTGGGTTCTAACCTGTTGCCT (site CTTGGACCTAG)”, 0.247.
As to “CTTGGAGCTTGGGTTCTAACCTGTTGCCT (site CTTGGAGCTAG)”, the “recombinant barcode read abundance (log10)” value was determined as 1.61.
The result for “CTTGGAGCTTGGGTTCTAACCTGTTGCCT (site CTTGGATCTAG)” reads 0.145; that for “CTTGGGTCTTGGGTTCTAACCTGTTGCAT (site CTTGGGTCTAT)”, 2.72; that for “CTTGGGTCTTGGGTTCTAACCTGTTGCAT (site TCCCATACTTC)”, 0.0573.
As to “CTTGGTTCTTGGGTTCTAACCTGTTGCTT (site CTGGGTCCTAA)”, the “recombinant barcode read abundance (log10)” value turned out to be 0.0304.
As for “CTTGGTTCTTGGGTTCTAACCTGTTGCTT (site CTTGGTTCTAA)”, the “recombinant barcode read abundance (log10)” value was 0.809.
The result for “GAAAACACTTGGGTTCTAACCTGTTGCCT (site GAAAACACTAG)” reads 1.18; that for “GAAAACACTTGGGTTCTAACCTGTTGCCT (site GAAGAGACTAG)”, 0.0433; that for “GAAAAGGCTTGGGTTCTAACCTGTTGCCT (site GAAAAGGCTAG)”, 0.804.
Turning to “GAAAAGGCTTGGGTTCTAACCTGTTGCCT (site GAAACGGCTAG)”, the “recombinant barcode read abundance (log10)” value turned out to be 0.105.
“GAAAAGGCTTGGGTTCTAACCTGTTGCCT (site GAAAGGGCTAG)”: the “recombinant barcode read abundance (log10)” value was found to be 0.0324.
For “GAAAAGGCTTGGGTTCTAACCTGTTGCCT (site GAAATGGCTAG)” the value was 0.206; for “GAAACGTCTTGGGTTCTAACCTGTTGCCT (site GAAACGTCTAG)”, 1.65; for “GAAACGTCTTGGGTTCTAACCTGTTGCCT (site GACAAGTCTAG)”, 0.0765.
For “GAAACTCCTTGGGTTCTAACCTGTTGCCT (site GAAAATCCTAG)” the value was 0.13.
On to “GAAACTCCTTGGGTTCTAACCTGTTGCCT (site GAAACTCCTAG)”, for which the “recombinant barcode read abundance (log10)” value turned out to be 0.352.
For the sequence “GAAACTCCTTGGGTTCTAACCTGTTGCCT (site GAAAGTCCTAG)”, the “recombinant barcode read abundance (log10)” value is 0.235.
As to “GAAACTCCTTGGGTTCTAACCTGTTGCCT (site GAAATTCCTAG)”, the “recombinant barcode read abundance (log10)” value is 0.0462.
The result for “GAAATGACTTGGGTTCTAACCTGTTGCCT (site GAAATGACTAG)” reads 0.908; that for “GAAATGACTTGGGTTCTAACCTGTTGCCT (site GCAATGACTAG)”, 0.152; that for “GAAATGACTTGGGTTCTAACCTGTTGCCT (site GGAATGACTAG)”, 0.066.
“GAAATGACTTGGGTTCTAACCTGTTGCCT (site GTAATGACTAG)”: the “recombinant barcode read abundance (log10)” value was found to be 0.202.

The values above are taken from the supplement of paper PMC11208160.
